EC50 data for 28 compounds are collected here from patent US8629276B2, “Inhibitors of human immunodeficiency virus replication” (priority 2012, dated 2014).

Usually EC50 stands for the midpoint of the concentration-response curve.

The subject of this experiment is recombinant NL-Rluc virus. Put plainly: Inhibition of HIV replication (NL-RLuc virus, luciferase readout in MT-2 cells). The class given is cell-based. Particulars: Human immunodeficiency virus 1, MT2, 120 h.
Regarding `CC(=O)N1CCc2nc(C)c(C(OC(C)(C)C)C(=O)O)c(-c3ccc(C)cc3)c2C1` (stereo not shown) [Example 25, 2-(6-Acetyl-2-methyl-4-(p-tolyl)-5,6,7,8-tetrahydro-1,6-naphthyridin-3-yl)-2-(tert-butoxy)acetic acid], the EC50 was found to be 1920 nM.
For `CC(C)c1nc2c(c(-c3ccc(F)cc3)c1C(OC(C)(C)C)C(=O)O)CN(C(=O)CCCc1ccccc1)CC2(C)C` (stereo not shown) [Example 9, 2-tert-Butoxy-2-(4-(4-fluorophenyl)-2-isopropyl-8,8-dimethyl-6-(4-phenylbutanoyl)-5,6,7,8-tetrahydro-1,6-naphthyridin-3-yl)acetic acid] the value was 6710 nM; for `Cc1ccc(-c2c3c(nc(C)c2C(OC(C)(C)C)C(=O)O)CCN(Cc2ccccc2)C3)cc1` (stereo not shown) [Example 21, 2-(6-Benzyl-2-methyl-4-(p-tolyl)-5,6,7,8-tetrahydro-1,6-naphthyridin-3-yl)-2-(tert-butoxy)acetic acid], 295 nM.
In the case of `COc1ccc(CCCN2CCc3nc(C)c([C@H](OC(C)(C)C)C(=O)O)c(-c4ccc(C)cc4)c3C2)cc1` [Example 33, (S)-2-(tert-Butoxy)-2-(6-(3-(4-methoxyphenyl)propyl)-2-methyl-4-(p-tolyl)-5,6,7,8-tetrahydro-1,6-naphthyridin-3-yl)acetic acid], the 50% effective concentration (EC50) amounted to 17 nM.
As for `CC(C)c1nc2c(c(-c3ccc(F)cc3)c1C(OC(C)(C)C)C(=O)O)CN(C(=O)c1ccc(-c3ccccc3)cc1)CC2(C)C` (stereo not shown) [Example 13, 2-(6-(Biphenylcarbonyl)-4-(4-fluorophenyl)-2-isopropyl-8,8-dimethyl-5,6,7,8-tetrahydro-1,6-naphthyridin-3-yl)-2-tert-butoxyacetic acid], the half-maximal effective concentration (EC50) came out at 2010 nM.
`CC(C)c1nc2c(c(-c3ccc(F)cc3)c1C(OC(C)(C)C)C(=O)O)CN(C(=O)[C@@H]1C[C@H]1c1ccccc1)CC2(C)C` (stereo partly drawn) [Example 8, 2-tert-Butoxy-2-(4-(4-fluorophenyl)-2-isopropyl-8,8-dimethyl-6-((1R,2R)-2-phenylcyclopropanecarbonyl)-5,6,7,8-tetrahydro-1,6-naphthyridin-3-yl)acetic acid]: the 50% effective concentration (EC50) turned out to be 6720 nM.
As to `Cc1ccc(-c2c3c(nc(C)c2C(OC(C)(C)C)C(=O)O)CCN(C)C3)cc1` (stereo not shown) [Example 23, 2-(tert-Butoxy)-2-(2,6-dimethyl-4-(p-tolyl)-5,6,7,8-tetrahydro-1,6-naphthyridin-3-yl)acetic acid], the EC50 was 2080 nM.
Under `Cc1nc2c(c(-c3cc(F)c4c(c3C)CCCO4)c1[C@H](OC(C)(C)C)C(=O)O)CN(CCCc1ccccc1F)CC2` (atropisomer, axis not shown) [Example 55, (2S)-2-(tert-Butoxy)-2-((R)-4-(8-fluoro-5-methylchroman-6-yl)-6-(3-(2-fluorophenyl)propyl)-2-methyl-5,6,7,8-tetrahydro-1,6-naphthyridin-3-yl)acetic acid] stands 1 nM; under `CC(C)c1nc2c(c(-c3ccc(F)cc3)c1C(OC(C)(C)C)C(=O)O)CN(C(=O)Cc1ccc(OCc3ccccc3)cc1)CC2(C)C` (stereo not shown) [Example 5, 2-(6-(2-(4-(Benzyloxy)phenyl)acetyl)-4-(4-fluorophenyl)-2-isopropyl-8,8-dimethyl-5,6,7,8-tetrahydro-1,6-naphthyridin-3-yl)-2-tert-butoxyacetic acid], 5130 nM; under `Cc1nc2c(c(-c3cc(F)c4c(c3C)CCCO4)c1[C@H](OC(C)(C)C)C(=O)O)CN(Cc1cccc(Cl)c1)CC2(C)C` [Example 37, (2S)-2-(tert-Butoxy)-2-(6-(3-chlorobenzyl)-4-(8-fluoro-5-methylchroman-6-yl)-2,8,8-trimethyl-5,6,7,8-tetrahydro-1,6-naphthyridin-3-yl)acetic acid], 69 nM.
Under `Cc1nc2c(c(-c3cc(F)c4c(c3C)CCCO4)c1[C@H](OC(C)(C)C)C(=O)O)CN(CCCc1ccccc1)CC2` (atropisomer, axis not shown) [Example 42, (2S)-2-(tert-Butoxy)-2-((R)-4-(8-fluoro-5-methylchroman-6-yl)-2-methyl-6-(3-phenylpropyl)-5,6,7,8-tetrahydro-1,6-naphthyridin-3-yl)acetic acid] stands 7 nM; under `CC(C)c1nc2c(c(-c3ccc(F)cc3)c1C(OC(C)(C)C)C(=O)O)CN(C(=O)c1ccc(F)cc1)CC2(C)C` (stereo not shown) [Example 4, 2-tert-Butoxy-2-(6-(4-fluorobenzoyl)-4-(4-fluorophenyl)-2-isopropyl-8,8-dimethyl-5,6,7,8-tetrahydro-1,6-naphthyridin-3-yl)acetic acid], 3160 nM.
Under `Cc1ccc(-c2c3c(nc(C)c2[C@H](OC(C)(C)C)C(=O)O)CCN(CCCc2ccc(Cl)cc2)C3)cc1` [Example 34, (S)-2-(tert-Butoxy)-2-(6-(3-(4-chlorophenyl)propyl)-2-methyl-4-(p-tolyl)-5,6,7,8-tetrahydro-1,6-naphthyridin-3-yl)acetic acid] stands 12 nM; under `CC(C)c1nc2c(c(-c3ccc(F)cc3)c1C(OC(C)(C)C)C(=O)O)CN(C(=O)Cc1ccccc1)CC2(C)C` (stereo not shown) [Example 7, 2-tert-Butoxy-2-(4-(4-fluorophenyl)-2-isopropyl-8,8-dimethyl-6-(2-phenylacetyl)-5,6,7,8-tetrahydro-1,6-naphthyridin-3-yl)acetic acid], 7540 nM.
As to `Cc1ccc(S(=O)(=O)N[C@@H](Cc2ccccc2)C(=O)N2Cc3c(nc(C(C)C)c(C(OC(C)(C)C)C(=O)O)c3-c3ccc(F)cc3)C(C)(C)C2)cc1` (stereo in doubt) [Example 10, 2-tert-Butoxy-2-(4-(4-fluorophenyl)-2-isopropyl-8,8-dimethyl-6-(2-(4-methylphenylsulfonamido)-3-phenylpropanoyl)-5,6,7,8-tetrahydro-1,6-naphthyridin-3-yl)acetic acid], the EC50 worked out at 777 nM.
Under `Cc1ccc(-c2c3c(nc(C)c2C(OC(C)(C)C)C(=O)O)CCN(CCc2ccccc2)C3)cc1` (stereo not shown) [Example 24, 2-(tert-Butoxy)-2-(2-methyl-6-phenethyl-4-(p-tolyl)-5,6,7,8-tetrahydro-1,6-naphthyridin-3-yl)acetic acid] stands 240 nM; under `Cc1ccc(-c2c3c(nc(C)c2C(OC(C)(C)C)C(=O)O)CCN(C(=O)[C@H](Cc2ccccc2)NS(=O)(=O)c2ccc(C)cc2)C3)cc1` (stereo in doubt) [Example 32, 2-(tert-Butoxy)-2-(2-methyl-6-(2-(4-methylphenylsulfonamido)-3-phenylpropanoyl)-4-(p-tolyl)-5,6,7,8-tetrahydro-1,6-naphthyridin-3-yl)acetic acid], 2300 nM; under `Cc1ccc(-c2c3c(nc(C)c2C(OC(C)(C)C)C(=O)O)CCN(C(=O)CCc2ccccc2)C3)cc1` (stereo not shown) [Example 28, 2-(tert-Butoxy)-2-(2-methyl-6-(3-phenylpropanoyl)-4-(p-tolyl)-5,6,7,8-tetrahydro-1,6-naphthyridin-3-yl)acetic acid], 335 nM.
Under `Cc1ccc(-c2c3c(nc(C)c2C(OC(C)(C)C)C(=O)O)CCN(C(=O)OCc2ccccc2)C3)cc1` (stereo not shown) [Example 19, 2-(6-((Benzyloxy)carbonyl)-2-methyl-4-(p-tolyl)-5,6,7,8-tetrahydro-1,6-naphthyridin-3-yl)-2-(tert-butoxy)acetic acid] stands 226 nM.
For `CC(C)c1nc2c(c(-c3ccc(F)cc3)c1C(OC(C)(C)C)C(=O)O)CN(Cc1ccc(F)cc1)CC2(C)C` (stereo not shown) [Example 16, 2-tert-Butoxy-2-(6-(4-fluorobenzyl)-4-(4-fluorophenyl)-2-isopropyl-8,8-dimethyl-5,6,7,8-tetrahydro-1,6-naphthyridin-3-yl)acetic acid] the value was 6920 nM.
On to `Cc1nc2c(c(-c3cc(F)c4c(c3C)CCCO4)c1[C@H](OC(C)(C)C)C(=O)O)CN(C(=O)OCc1ccccc1)CC2(C)C` [Example 35, (2S)-2-(6-((Benzyloxy)carbonyl)-4-(8-fluoro-5-methylchroman-6-yl)-2,8,8-trimethyl-5,6,7,8-tetrahydro-1,6-naphthyridin-3-yl)-2-(tert-butoxy)acetic acid], for which the EC50 turned out to be 3 nM.
Under `Cc1ccc(CCCN2CCc3nc(C)c([C@H](OC(C)(C)C)C(=O)O)c(-c4cc(F)c5c(c4C)CCCO5)c3C2)cc1F` (atropisomer, axis not shown) [Example 51] stands 1 nM; under `Cc1ccc(-c2c3c(nc(C)c2C(OC(C)(C)C)C(=O)O)CCN(c2ccc(-c4ccccc4)cc2)C3)cc1` (stereo not shown) [Example 30, 2-(6-([1,1′-Biphenyl]-4-yl)-2-methyl-4-(p-tolyl)-5,6,7,8-tetrahydro-1,6-naphthyridin-3-yl)-2-(tert-butoxy)acetic acid], 323 nM; under `Cc1ccc(-c2c3c(nc(C)c2[C@H](OC(C)(C)C)C(=O)O)CCN(CCc2c[nH]c4ccccc24)C3)cc1` [Example 46, (S)-2-(6-(2-(1H-Indol-3-yl)ethyl)-2-methyl-4-(p-tolyl)-5,6,7,8-tetrahydro-1,6-naphthyridin-3-yl)-2-(tert-butoxy)acetic acid], 139 nM.
For `CC(C)c1nc2c(c(-c3ccc(F)cc3)c1C(OC(C)(C)C)C(=O)O)CN(C(=O)Cc1ccc(F)cc1)CC2(C)C` (stereo not shown) [Example 6, 2-tert-Butoxy-2-(4-(4-fluorophenyl)-6-(2-(4-fluorophenyl)acetyl)-2-isopropyl-8,8-dimethyl-5,6,7,8-tetrahydro-1,6-naphthyridin-3-yl)acetic acid] the value was 185 nM; for `Cc1nc2c(c(-c3cc(F)c4c(c3C)CCCO4)c1[C@H](OC(C)(C)C)C(=O)O)CN(CCCc1ccccc1)CC2(C)C` [Example 40, (2S)-2-(tert-Butoxy)-2-(4-(8-fluoro-5-methylchroman-6-yl)-2,8,8-trimethyl-6-(3-phenylpropyl)-5,6,7,8-tetrahydro-1,6-naphthyridin-3-yl)acetic acid], 2 nM; for `Cc1nc2c(c(-c3cc(F)c4c(c3C)CCCO4)c1[C@H](OC(C)(C)C)C(=O)O)CN(CCCc1cccc(C(F)(F)F)c1)CC2` (atropisomer, axis not shown) [Example 53], 2 nM.
As for `Cc1cccc(CCCN2CCc3nc(C)c([C@H](OC(C)(C)C)C(=O)O)c(-c4cc(F)c5c(c4C)CCCO5)c3C2)c1` (atropisomer, axis not shown) [Example 47, (2S)-2-(tert-Butoxy)-2-((R)-4-(8-fluoro-5-methylchroman-6-yl)-2-methyl-6-(3-(m-tolyl)propyl)-5,6,7,8-tetrahydro-1,6-naphthyridin-3-yl)acetic acid], the EC50 is 2 nM.
